# ChEMBL document CHEMBL1201862, “PubChem BioAssay data set” (2004)
#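 All cell lines were grown in 96-well plates and treated with compound for 48 hours. GI50: concentration for 50% inhibition of growth.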 Active and inactive are the calls of the source. Cut-off read from the data, not from the text of the source: active = GI50 up to about 1.1 µM and inactive = higher.
# Columns and labels:
# Assay in all cases: DTP human tumour cell line panel, 48 h
# HCC 2998 = tested on: HCC 2998
# COLO 205 = tested on: COLO 205
# MOLT-4 = tested on: MOLT-4
# SF-295 = tested on: SF-295
# A549 = tested on: A549
# K562 = tested on: K562
# SW-620 = tested on: SW-620
# SNB-19 = tested on: SNB-19
# SF-539 = tested on: SF-539
# LOX IMVI = tested on: LOX IMVI
# UACC-62 = tested on: UACC-62
# SK-MEL-5 = tested on: SK-MEL-5
# HL-60 = tested on: HL-60
# Malme-3M = tested on: Malme-3M
# SK-OV-3 = tested on: SK-OV-3
# UACC-257 = tested on: UACC-257
# OVCAR-4 = tested on: OVCAR-4
# RPMI-8226 = tested on: RPMI-8226
# A498 = tested on: A498
# HOP-92 = tested on: HOP-92
SMILES,GI50 (HCC 2998),GI50 (COLO 205),GI50 (MOLT-4),GI50 (SF-295),GI50 (A549),GI50 (K562),GI50 (SW-620),GI50 (SNB-19),GI50 (SF-539),GI50 (LOX IMVI),GI50 (UACC-62),GI50 (SK-MEL-5),GI50 (HL-60),GI50 (Malme-3M),GI50 (SK-OV-3),GI50 (UACC-257),GI50 (OVCAR-4),GI50 (RPMI-8226),GI50 (A498),GI50 (HOP-92)
CCN1CCN=c2c3cc(OC)ccc3n3cnc4ccc1c2c43,0.244 µM (active),0.15 µM (active),0.0879 µM (active),0.26 µM (active),0.192 µM (active),0.0555 µM (active),0.824 µM (active),0.301 µM (active),0.123 µM (active),0.154 µM (active),0.246 µM (active),0.27 µM (active),0.206 µM (active),0.267 µM (active),0.348 µM (active),0.553 µM (active),0.371 µM (active),0.171 µM (active),0.225 µM (active),0.776 µM (active)
CC12C/C(=C\c3ccccc3)C(=O)C3C1CCCC32,44.5 µM (inactive),87.1 µM (inactive),21.5 µM (inactive),> 100 µM (inactive),> 100 µM (inactive),38.6 µM (inactive),> 100 µM (inactive),> 100 µM (inactive),> 100 µM (inactive),72.8 µM (inactive),> 100 µM (inactive),46 µM (inactive),21.5 µM (inactive),> 100 µM (inactive),> 100 µM (inactive),53 µM (inactive),66.4 µM (inactive),34.2 µM (inactive),> 100 µM (inactive),> 100 µM (inactive)
CC1(C)C2C/C(=C\c3ccccc3)C(=O)C1C2 (stereo not given),> 100 µM (inactive),> 100 µM (inactive),56.9 µM (inactive),> 100 µM (inactive),93.5 µM (inactive),> 100 µM (inactive),> 100 µM (inactive),> 100 µM (inactive),> 100 µM (inactive),> 100 µM (inactive),> 100 µM (inactive),45.5 µM (inactive),35.9 µM (inactive),> 100 µM (inactive),> 100 µM (inactive),58.1 µM (inactive),> 100 µM (inactive),61.8 µM (inactive),> 100 µM (inactive),> 100 µM (inactive)
CCN(CC)CCOc1ccc(/C=C(\C#N)c2ccc(OCCN(CC)CC)cc2)cc1,15.7 µM (inactive),10.8 µM (inactive),9.12 µM (inactive),13.4 µM (inactive),19.1 µM (inactive),3.37 µM (inactive),15.3 µM (inactive),36.4 µM (inactive),7.64 µM (inactive),12.6 µM (inactive),16.6 µM (inactive),4.48 µM (inactive),4.84 µM (inactive),14.5 µM (inactive),28.2 µM (inactive),16.9 µM (inactive),37.3 µM (inactive),13 µM (inactive),16.9 µM (inactive),16.9 µM (inactive)
Cc1ccc(/C=C2\CCCC(CN3CCCCC3)C2=O)cc1 (stereo not given),15.3 µM (inactive),1.82 µM (inactive),4 µM (inactive),17.2 µM (inactive),17.7 µM (inactive),1.57 µM (inactive),1.75 µM (inactive),15.2 µM (inactive),4.42 µM (inactive),1.84 µM (inactive),4.73 µM (inactive),4.66 µM (inactive),0.555 µM (active),2.51 µM (inactive),16.5 µM (inactive),1.93 µM (inactive),1.79 µM (inactive),> 100 µM (inactive),13.4 µM (inactive),1.81 µM (inactive)
CCOC(=O)CSc1nc(N)c2c(-c3ccccc3)c3c(nc2n1)CCCC3,> 100 µM (inactive),> 100 µM (inactive),> 100 µM (inactive),> 100 µM (inactive),> 100 µM (inactive),> 100 µM (inactive),> 100 µM (inactive),> 100 µM (inactive),> 100 µM (inactive),> 100 µM (inactive),> 100 µM (inactive),> 100 µM (inactive),> 100 µM (inactive),> 100 µM (inactive),> 100 µM (inactive),> 100 µM (inactive),> 100 µM (inactive),> 100 µM (inactive),> 100 µM (inactive),> 100 µM (inactive)
O=C1N[C@@H]([C@H]2CC[C@H](Cl)CN2)C(=O)N[C@H]1[C@H]1CC[C@H](Cl)CN1,0.923 µM (active),1.99 µM (inactive),0.103 µM (active),0.169 µM (active),0.248 µM (active),1.39 µM (inactive),0.962 µM (active),1.37 µM (inactive),0.357 µM (active),0.237 µM (active),0.137 µM (active),1.21 µM (inactive),0.1 µM (active),0.836 µM (active),0.836 µM (active),2.26 µM (inactive),2.77 µM (inactive),1.32 µM (inactive),2.63 µM (inactive),0.757 µM (active)
O=C1C=C(OCCCCl)C(=O)c2c(O)ccc(O)c21,1.91 µM (inactive),0.245 µM (active),2.11 µM (inactive),0.82 µM (active),0.266 µM (active),1.26 µM (inactive),0.277 µM (active),1.8 µM (inactive),1.38 µM (inactive),0.256 µM (active),0.286 µM (active),0.163 µM (active),0.792 µM (active),0.167 µM (active),2.24 µM (inactive),0.176 µM (active),1.25 µM (inactive),2.06 µM (inactive),2.13 µM (inactive),1.42 µM (inactive)
CC(=O)O[C@H]1CCC2[C@@H]3CC[C@]4(C)CC(=O)C=C[C@]4(C)C3CC[C@@]21C (stereo not given in full),45.6 µM (inactive),17.2 µM (inactive),23.2 µM (inactive),53.3 µM (inactive),18.3 µM (inactive),20.2 µM (inactive),18.3 µM (inactive),51.3 µM (inactive),17.7 µM (inactive),16.9 µM (inactive),15.7 µM (inactive),14.8 µM (inactive),20.4 µM (inactive),19.4 µM (inactive),65.8 µM (inactive),20.6 µM (inactive),16.9 µM (inactive),23 µM (inactive),44.7 µM (inactive),48.2 µM (inactive)
CCN(CC)c1c(C(C)(C)C)c(=O)n2ccsc2c1OC(C)=O,17.4 µM (inactive),16.9 µM (inactive),17.8 µM (inactive),17.1 µM (inactive),15 µM (inactive),17.6 µM (inactive),16.9 µM (inactive),16.6 µM (inactive),19.1 µM (inactive),17.4 µM (inactive),16.9 µM (inactive),18.1 µM (inactive),29.4 µM (inactive),12.5 µM (inactive),18.2 µM (inactive),16.5 µM (inactive),15.2 µM (inactive),13.8 µM (inactive),19.2 µM (inactive),17.4 µM (inactive)
